According to patent publication EP4631940A1, “COMPOUND TARGETING PAN-KRAS PROTEIN DEGRADATION AGENT AND USE THEREOF” (Betta Pharmaceuticals Co., Ltd., priority 2022, dated 2024):

Assays:
[1] = in vitro; conditions: dog, microsomes
[2] = biological target: T1, KRAS G12D (Homo sapiens, UniProt P01116, G12D); test: cell-based; conditions: AGS
[3] = in vitro; conditions: mouse, microsomes
[4] = biological target: T1, KRAS G12D
[5] = in vitro; conditions: human, microsomes
[6] = in vitro; conditions: rat, microsomes
[7] = system: H358; test: Cell proliferation experiment (CellTiter-Glo); assay type: cell-based; conditions: Homo sapiens, NCI-H358; H358, KRAS mutation type G12C; 96 h incubation
[8] = system: SW620; test: Cell proliferation experiment (CellTiter-Glo); assay type: cell-based; conditions: Homo sapiens, SW-620, 96 h, read-out: IC50(nM) SW620
[9] = system: AGS; test: Cell proliferation experiment (CellTiter-Glo); assay type: cell-based; conditions: Homo sapiens, AGS, 96 h, read-out: IC50(nM) AGS
[10] = Phase II metabolic stability in liver microsomes (UDPGA); assay type: in vitro ADME, Human; conditions: for 60 minutes remaining percentage % Human: 0.5 mg/mL liver microsomes, Alamethicin; for metabolism by UGT in human liver microsomes: 60 min
Method: (§1) Example 6 Study on Phase II Metabolic Stability of Compounds in Human, Rat, Mouse, and Dog Liver Microsomes
(§2) Experimental Method: A diluted solution containing 0.5 mg/mL liver microsomes with K-buffer and MgCl2 was prepared: Table 8
(§3) 358 µL of the diluted liver microsome solution prepared in Table 8 above was added to the pre-set wells of the incubation plate, labeled as the incubation plate. 2 µL of compound working solution (400 µM) (final concentration of DMSO ≤ 0.5%) was added. The incubation plate was placed in a 37°C constant temperature shaker and pre-incubated for 5-10 min. Then, 40 µL of UDPGA (20 mM) was added to the incubation plate to initiate the reaction, and timing started. At each predetermined time point (0, 5, 15, 60 min), 50 µL of samples were taken from the incubation plate and added to the precipitation plate containing 200 µL of internal standard. Samples were mixed thoroughly, centrifuged at 4°C and 5000 rpm for 10 minutes. The supernatant after centrifugation was added to pre-added ultrapure water at an appropriate ratio, mixed thoroughly on a shaker at room temperature, and subjected to LC-MS/MS analysis.
(§4) Data processing: The peak areas of the analyte and the internal standard in samples were measured at different time points. The peak area ratio of the analyte to the internal standard at non-zero time points compared to the peak area ratio of the analyte to the internal standard in the 0 min sample was used to calculate the remaining percentage of the parent drug.

[11] = as above; assay type: in vitro ADME; conditions: 0.5 mg/mL liver microsomes, Alamethicin
Method: as §1, §2, §3, §4

[12] = PK study in ICR mice (whole blood); assay type: in vivo; conditions: Female ICR mice, IV 1 mg/kg; for AUC(0-t) / half-life / C0: mouse; for C0: read-out: C0
Method: Example 8 PK Study of Compound in ICR Mice (whole blood)
The compound was mixed with the vehicle (10% DMSO / 5% Solutol HS 15 / 85% saline), vortexed, and sonicated to prepare a clear solution at 0.2 mg/mL. Female ICR mice aged 6 to 7 weeks (non-fasted) were intravenously administered the compound. Whole blood was collected at specified time points. Drug concentration was analyzed by LC-MS/MS, and pharmacokinetic parameters were calculated using Phoenix WinNonlin software (Pharsight Corporation, USA). Table 11 Mouse PK Data for Intravenous Compound Monotherapy

[13] = system: PK59; test: Cell proliferation experiment (CellTiter-Glo); assay type: cell-based; conditions: PK-59; PK59, KRAS mutation type G12D; 96 h incubation

T1 sequence (P01116 1-188 isoform P01116-2 G12D): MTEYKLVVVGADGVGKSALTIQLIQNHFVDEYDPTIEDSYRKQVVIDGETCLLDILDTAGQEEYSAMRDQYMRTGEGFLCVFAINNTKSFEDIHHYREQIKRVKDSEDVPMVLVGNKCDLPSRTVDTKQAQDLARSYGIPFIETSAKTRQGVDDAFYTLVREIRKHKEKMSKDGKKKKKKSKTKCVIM

Compound	microsomal CLint [1]	Dmax [2]	microsomal CLint [3]	DC50 [4]	microsomal CLint [5]	microsomal CLint [6]	IC50 [7]	IC50 [8]	IC50 [9]	60 minutes remaining percentage % Human [10]	metabolism by UGT in human liver microsomes [10]	60 minutes remaining percentage % Dog [11]	60 minutes remaining percentage % Mouse [11]	60 minutes remaining percentage % Rat [11]	Cl_obs [12]	Vss_obs [12]	AUC(0-t) [12]	half-life [12]	C0 [12]	IC50 [13]
CCc1c(F)ccc2cc(O)cc(-c3ncc4c(N5CCC[C@@](C)(O)C5)nc(OCC5(CN6CCC(Oc7cc(-c8cn([C@H](C(=O)N9C[C@H](O)C[C@H]9C(=O)N[C@@H](C)c9ccc(-c%10scnc%10C)cc9)C(C)C)nn8)ccn7)CC6)CC5)nc4c3F)c12 [Compound 136]	20.8 µL/min/mg	95%	22.1 µL/min/mg	0.014 µM	19.6 µL/min/mg	8 µL/min/mg	6.6 nM	53 nM	10 nM											
CCc1c(F)ccc2cc(O)cc(-c3ncc4c(N5CCC[C@@](C)(O)C5)nc(OCC5(CN6CCC7(CC6)CC(c6cn([C@H](C(=O)N8C[C@H](O)C[C@H]8C(=O)N[C@@H](C)c8ccc(-c9scnc9C)cc8)C(C)C)nn6)C7)CC5)nc4c3F)c12 [Compound 71]	6.5 µL/min/mg	95%	9.8 µL/min/mg	0.02 µM	5.9 µL/min/mg	1.1 µL/min/mg	39 nM	85 nM	18 nM	94.6%	not metabolized or are minimally metabolized	108%	93%	75.4%	16.3 mL/min/kg	1.45 L/kg	1030 ng·h/mL	6.08 h	5560 ng/mL	
CCc1c(F)ccc2cc(O)cc(-c3ncc4c(N5CCC[C@@](C)(O)C5)nc(OCC5(CN6CCC(c7ccc(-c8cn([C@H](C(=O)N9C[C@H](O)C[C@H]9C(=O)N[C@@H](C)c9ccc(-c%10scnc%10C)cc9)C(C)C)nn8)cc7)CC6)CC5)nc4c3F)c12 [Compound 133]	9.3 µL/min/mg	95%	8 µL/min/mg	0.017 µM	7.4 µL/min/mg	7.2 µL/min/mg	48 nM	74 nM	13 nM						14.2 mL/min/kg	2.49 L/kg	1200 ng·h/mL	5.77 h	2840 ng/mL	
CCc1c(F)ccc2cc(O)cc(-c3ncc4c(N5CCC[C@@](C)(O)C5)nc(OCC5(CN6CCC(OCc7ccc(-c8cn([C@H](C(=O)N9C[C@H](O)C[C@H]9C(=O)N[C@@H](C)c9ccc(-c%10scnc%10C)cc9)C(C)C)nn8)cc7)CC6)CC5)nc4c3F)c12 [Compound 93]	28.5 µL/min/mg	95%	8.3 µL/min/mg	0.011 µM	23.5 µL/min/mg	10.9 µL/min/mg	20 nM	86 nM	6.8 nM											
CCc1c(F)ccc2cc(O)cc(-c3ncc4c(N5CCC[C@@](C)(O)C5)nc(OCC5(CN6CCC(COc7ccc(-c8cn([C@H](C(=O)N9C[C@H](O)C[C@H]9C(=O)N[C@@H](C)c9ccc(-c%10scnc%10C)cc9)C(C)C)nn8)cc7)CC6)CC5)nc4c3F)c12 [Compound 69]	16.4 µL/min/mg	95%	7.9 µL/min/mg	0.025 µM	9.8 µL/min/mg	4.6 µL/min/mg	42 nM	34 nM	14 nM	98.4%	not metabolized or are minimally metabolized	90.6%	92%	99%						
CCc1c(F)ccc2cc(O)cc(-c3ncc4c(N5CCC[C@@](C)(O)C5)nc(OC[C@]56CCCN5[C@@H](COC(=O)N5CCC7(CC5)CC(C(=O)N[C@H](C(=O)N5C[C@H](O)C[C@H]5C(=O)N[C@@H](C)c5ccc(-c8scnc8C)cc5)C(C)(C)C)C7)CC6)nc4c3F)c12 [Compound 88]	13.3 µL/min/mg		24.5 µL/min/mg		13.4 µL/min/mg	10.1 µL/min/mg	90 nM	199 nM	33 nM						4.03 mL/min/kg	0.780 L/kg	4110 ng·h/mL	5.61 h	5000 ng/mL	
CCc1c(F)ccc2cc(O)cc(-c3ncc4c(N5CCC[C@@](C)(O)C5)nc(OCC5(CN6CCC(Oc7ccc(-c8cn([C@H](C(=O)N9C[C@H](O)C[C@H]9C(=O)N[C@@H](CO)c9ccc(-c%10ccnn%10CC)cc9)C(C)C)nn8)cn7)CC6)CC5)nc4c3F)c12 [Compound 160]		95%		0.002 µM			17 nM	88 nM	14 nM											19.5 nM
CCc1c(F)ccc2cc(O)cc(-c3ncc4c(N5CCC[C@@](C)(O)C5)nc(OCC5(CN6CCC(Oc7ccc(-c8cn([C@H](C(=O)N9C[C@H](O)C[C@H]9C(=O)N[C@@H](C)c9ccc(-c%10scnc%10C)cc9)C(C)C)nn8)nc7)CC6)CC5)nc4c3F)c12 [Compound 117]	6.6 µL/min/mg	95%	10.1 µL/min/mg	0.0075 µM	8.8 µL/min/mg	11.3 µL/min/mg		47 nM	13 nM											18.5 nM
CCc1c(F)ccc2cc(O)cc(-c3ncc4c(N5CCC[C@@](C)(O)C5)nc(OCC5(CN6CCC7(CC6)CN(c6ccc(-c8cn([C@H](C(=O)N9C[C@H](O)C[C@H]9C(=O)N[C@@H](C)c9ccc(-c%10scnc%10C)cc9)C(C)C)nn8)cc6)C7)CC5)nc4c3F)c12 [Compound 75]	22.1 µL/min/mg	95%	8.6 µL/min/mg	0.024 µM	1 µL/min/mg	20.7 µL/min/mg	40 nM	122 nM	11 nM											
CCc1c(F)ccc2cc(O)cc(-c3ncc4c(N5CCC[C@@](C)(O)C5)nc(OCC5(CN6CCN(C78CC(c9cn([C@H](C(=O)N%10C[C@H](O)C[C@H]%10C(=O)N[C@@H](C)c%10ccc(-c%11scnc%11C)cc%10)C(C)C)nn9)(C7)C8)CC6)CC5)nc4c3F)c12 [Compound 149, (2S,4R)-1-((S)-2-(4-(3-(4-((1-(((7-(8-ethyl-7-fluoro-3-hydroxynaphthalen-1-yl)-8-fluoro-4-((R)-3-hydroxy-3-methylpiperidin-1-yl)pyrido[4,3-d]pyrimidin-2-yl)oxy)methyl)cyclopropyl)methyl)piperazin-1-yl)bicyclic[1.1.1]pent-1-yl)-1H-1,2,3-triazol-1-yl)-3-methylbutanoyl)-4-hydroxy-N-( (S)-1-(4-(4-methylthiazol-5-yl)phenyl)ethyl)pyrrolidine-2-carboxamide]		95%		0.0076 µM					15 nM											57 nM
C=C1CN2[C@H](COCc3ccc(-c4cn([C@H](C(=O)N5C[C@H](O)C[C@H]5C(=O)N[C@@H](C)c5ccc(-c6scnc6C)cc5)C(C)C)nn4)cc3)CC[C@@]2(COc2nc(N3CCC[C@@](C)(O)C3)c3cnc(-c4cc(O)cc5ccc(F)c(CC)c45)c(F)c3n2)C1 [Compound 122]	53 µL/min/mg	95%	24.8 µL/min/mg	0.022 µM	46.4 µL/min/mg	8.5 µL/min/mg		87 nM	28 nM	76.9%		99.4%	105%	96.5%						
